The record followed here is ChEMBL document CHEMBL4020806, “Evaluation of the antiprotozoan properties of 5'-norcarbocyclic pyrimidine nucleosides” (Bioorg Med Chem Lett, 2017).

Holding throughout (assay type): functional
In experiment [1] the test system is Trypanosoma brucei. Briefly: Antiprotozoal activity against PYR6-5 deficient bloodstream form of 5-FU hypersensitive Trypanosoma brucei after 16 hrs by Alamar Blue assay. For orientation: Alamar Blue is a resazurin reagent that responds to reducing activity.
Experiment [2] concerns Trypanosoma brucei. Nature of the experiment: Resistance factor, ratio of EC50 for PYR6-5 deficient bloodstream form of 5-FU hypersensitive Trypanosoma brucei to EC50 for wild type Trypanosoma brucei.
Experiment [3] concerns Trypanosoma brucei. Nature of the experiment: Antiprotozoal activity against bloodstream form of 5FU resistant Trypanosoma brucei after 16 hrs by Alamar Blue assay.
In experiment [4] the test system is Trypanosoma brucei. Briefly: Resistance factor, ratio of EC50 for 5FU resistant Trypanosoma brucei to EC50 for wild type Trypanosoma brucei.
Experiment [5] deals with Trypanosoma brucei. Nature of the experiment: Antiprotozoal activity against bloodstream form of multi-drug resistant Trypanosoma brucei B48 after 16 hrs by Alamar Blue assay. The settings on record: B48, 16 h.
Experiment [6] deals with Leishmania mexicana. Nature of the experiment: Resistance factor, ratio of EC50 for 5FU resistant Leishmania mexicana to EC50 for wild type Leishmania mexicana.
Experiment [7] concerns Trypanosoma brucei. Nature of the experiment: Resistance factor, ratio of EC50 for multi-drug resistant Trypanosoma brucei B48 to EC50 for wild type Trypanosoma brucei.
Experiment [8] relates to Leishmania mexicana. Nature of the experiment: Antileishmanial activity against wild type Leishmania mexicana after 16 hrs by Alamar Blue assay.
For experiment [9], the system named is Leishmania mexicana. Briefly: Antileishmanial activity against 5FU resistant Leishmania mexicana after 16 hrs by Alamar Blue assay.
Experiment [10] deals with Trypanosoma brucei. Nature of the experiment: Antiprotozoal activity against bloodstream form of wild type Trypanosoma brucei after 16 hrs by Alamar Blue assay.

One may read the EC50 as the concentration at which the effect is half-maximal. Read a high EC50 as weaker potency. Consider `Cc1cc(C)cc(C(=O)O[C@@H]2C=C[C@H](n3ccc(=O)n(C(=O)c4cc(C)cc(C)c4)c3=O)C2)c1`, for which the EC50 with Trypanosoma brucei [1] worked out at 24.4 µM; in the experiment with Trypanosoma brucei [3], 20.2 µM; with Trypanosoma brucei [5], 21.9 µM; in the experiment on Leishmania mexicana [8] it was 38.9 µM; with Leishmania mexicana [9], 23.6 µM; in the experiment with Trypanosoma brucei [10] it was 23.8 µM. Further, the “Ratio EC50” value with Trypanosoma brucei [2] is given as 1.03; in the experiment with Trypanosoma brucei [4], 0.85; in the experiment with Leishmania mexicana [6] it was 0.61; in the experiment with Trypanosoma brucei [7], 0.9.

For `Cc1ccc(Nc2cn([C@H]3C=C[C@@H](O)C3)c(=O)[nH]c2=O)cc1`, the half-maximal effective concentration (EC50) in the experiment on Trypanosoma brucei [1] was found to be 24.7 µM; in the experiment with Trypanosoma brucei [3], 17.1 µM; in the experiment on Trypanosoma brucei [5], 31 µM; with Leishmania mexicana [8], 94.6 µM; in the experiment with Leishmania mexicana [9], 96.7 µM; in the experiment on Trypanosoma brucei [10], 31.7 µM. Moreover, the “Ratio EC50” value was 0.78 in the experiment on Trypanosoma brucei [2], 0.54 with Trypanosoma brucei [4], 1.02 in the experiment with Leishmania mexicana [6] and 1 with Trypanosoma brucei [7].

With `N#Cc1cccc(C(=O)O[C@@H]2C=C[C@H](n3ccc(=O)n(Cc4ccccc4)c3=O)C2)c1`, the EC50 in the experiment on Trypanosoma brucei [1] came out at 26.4 µM; in the experiment with Trypanosoma brucei [3], 21.4 µM; in the experiment on Trypanosoma brucei [5], 25 µM; in the experiment on Leishmania mexicana [8], 45.5 µM; with Leishmania mexicana [9], 52.6 µM; in the experiment on Trypanosoma brucei [10] it was 27.9 µM. Moreover, the “Ratio EC50” value with Trypanosoma brucei [2] is reported as 0.94; in the experiment on Trypanosoma brucei [4] it was 0.76; in the experiment on Leishmania mexicana [6] it was 1.16; in the experiment with Trypanosoma brucei [7], 0.9.
